Reference: patent publication US7256028B2, “Methods for screening compounds that modulate lipid metabolism” (Xenon Genetics Inc., priority 2000, dated 2007)

Columns and labels:
[1] = tested on: D6D Promoter (human delta-6-desaturase control region, pRh4002.1); assay: CAT reporter assay, basal activity of D6D promoter in ZR-75-1 cell line; type: cell-based; settings: ZR-75-1 cells transfected with pRh4002.1 (D6D) plus agent; CAT activity normalized to pCat3-Control = 100; pRh4002.1 alone 75.91
human delta-5-desaturase [2] = target: T1, human delta-5-desaturase (Homo sapiens, UniProt O60427); assay: Inhibition of human delta-5-desaturase in spheroplasts of Saccharomyces cerevisiae transformed with pTh5009.1; type: cell-based
T1 construct: expressed in transfected cells; host or cells: Saccharomyces cerevisiae INVSc1 transformed with pTh5009.1 (pYES2/CT backbone), galactose-induced; whole cells or spheroplasts
T1 sequence (O60427 with tags, fused parts or gaps): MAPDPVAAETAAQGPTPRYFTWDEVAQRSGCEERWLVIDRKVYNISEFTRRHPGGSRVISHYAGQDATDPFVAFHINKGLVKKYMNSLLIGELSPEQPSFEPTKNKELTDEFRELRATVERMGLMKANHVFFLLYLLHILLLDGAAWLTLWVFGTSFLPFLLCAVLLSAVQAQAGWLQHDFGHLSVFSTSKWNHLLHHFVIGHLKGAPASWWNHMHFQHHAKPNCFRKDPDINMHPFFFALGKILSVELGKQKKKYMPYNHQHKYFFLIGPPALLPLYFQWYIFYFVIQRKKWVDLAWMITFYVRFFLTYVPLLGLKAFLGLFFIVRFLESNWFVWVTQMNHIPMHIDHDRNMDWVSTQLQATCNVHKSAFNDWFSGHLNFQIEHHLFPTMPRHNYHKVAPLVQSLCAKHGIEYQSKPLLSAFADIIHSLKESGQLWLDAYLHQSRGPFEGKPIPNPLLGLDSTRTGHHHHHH
Method: (§1) After 16 h incubation, spheroplasts were prepared as previously described in Example 8.

rat delta-5-desaturase [3] = target: T2, rat delta-5-desaturase (Rattus norvegicus, UniProt Q920R3, Q29H/R30G); assay: Inhibition of rat delta-5-desaturase in spheroplasts of Saccharomyces cerevisiae transformed with pYr5014.1; type: cell-based
T2 construct: A rD5D cDNA fragment spanning nucleotides +1 to +1344 was cloned by RT-PCR using total RNA extracted from rat liver tissue; expressed in transfected cells; host or cells: Saccharomyces cerevisiae INVSc1 transformed with pYr5014.1 (pYES2 backbone), galactose-induced; whole cells or spheroplasts
T2 sequence (Q920R3 1-447 Q29H/R30G): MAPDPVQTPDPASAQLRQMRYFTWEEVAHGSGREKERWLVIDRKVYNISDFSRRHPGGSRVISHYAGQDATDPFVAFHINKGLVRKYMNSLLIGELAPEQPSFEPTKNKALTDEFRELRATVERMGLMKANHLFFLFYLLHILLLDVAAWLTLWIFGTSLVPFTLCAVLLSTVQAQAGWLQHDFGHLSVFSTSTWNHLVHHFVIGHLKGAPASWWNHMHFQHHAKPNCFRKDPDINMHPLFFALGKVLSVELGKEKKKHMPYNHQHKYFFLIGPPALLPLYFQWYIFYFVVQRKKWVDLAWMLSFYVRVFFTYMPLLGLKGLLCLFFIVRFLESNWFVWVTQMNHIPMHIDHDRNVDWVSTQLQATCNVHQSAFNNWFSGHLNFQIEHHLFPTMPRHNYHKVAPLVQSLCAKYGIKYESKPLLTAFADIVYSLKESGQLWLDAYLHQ
Method: as §1

human delta-5-desaturase [4] = target: T1, human delta-5-desaturase; assay: Inhibition of human delta-5-desaturase in whole cells of Saccharomyces cerevisiae transformed with pTh5009.1; type: cell-based
Method: (§2) Incubation of Whole Yeast: Saccharomyces cerevisiae transformed with either pYr5014.1 or pTh5009.1 were incubated in a 125 ml Erlenmeyer flask containing 9 ml of SC-U medium with 1% tergitol (O.D.600 0.4, approximately 3.2×10^6 cells/ml) and 200 μl of n-propyl gallate in ethanol (final concentration in the culture ranged between 1.7-14.0 mM). After I h incubation in an orbital incubator at 270 rpm and 30° C., 1 μCi of potassium salt of [1-^14C]-dihomogammalinolenic acid (dissolved in SC-U medium and 1% tergitol) was added to the cell suspension to a final concentration of 2 μM. After 5 h incubation with the inhibitor, cells reached the log phase and the transgene expression was induced with the addition of 1 ml of galactose to a final concentration of 2%. Yeast were further incubated for 19 h (O.D.600 range: 5-10) until they were harvested by centrifugation at 5000×g for 10 minutes at 4° C.
(§3) Calculations: The delta-5-desaturase activity was determined by measuring the conversion of radiolabelled dihomogammalinolenic acid to arachidonic acid (20:3n-6 to 20:4n-6). The percent inhibition was calculated as described elsewhere (Kawashima et al., 1996, Biosci. Biotech. Biochem., 60:1672-1676): % Inhibition=100(activity without the inhibitor−activity with the inhibitor)/activity without the inhibitor

rat delta-5-desaturase [5] = target: T2, rat delta-5-desaturase; assay: Inhibition of rat delta-5-desaturase in whole cells of Saccharomyces cerevisiae transformed with pYr5014.1; type: cell-based
Method: as §2, §3

delta-5-desaturase = target: T3, delta-5-desaturase (Rattus norvegicus, UniProt Q920R3); assay: Inhibition of delta-5-desaturase activity in rat liver microsomes; type: biochemical
T3 construct: from tissue; host or cells: liver microsomes of Wistar rats
T3 sequence (Q920R3 whole entry): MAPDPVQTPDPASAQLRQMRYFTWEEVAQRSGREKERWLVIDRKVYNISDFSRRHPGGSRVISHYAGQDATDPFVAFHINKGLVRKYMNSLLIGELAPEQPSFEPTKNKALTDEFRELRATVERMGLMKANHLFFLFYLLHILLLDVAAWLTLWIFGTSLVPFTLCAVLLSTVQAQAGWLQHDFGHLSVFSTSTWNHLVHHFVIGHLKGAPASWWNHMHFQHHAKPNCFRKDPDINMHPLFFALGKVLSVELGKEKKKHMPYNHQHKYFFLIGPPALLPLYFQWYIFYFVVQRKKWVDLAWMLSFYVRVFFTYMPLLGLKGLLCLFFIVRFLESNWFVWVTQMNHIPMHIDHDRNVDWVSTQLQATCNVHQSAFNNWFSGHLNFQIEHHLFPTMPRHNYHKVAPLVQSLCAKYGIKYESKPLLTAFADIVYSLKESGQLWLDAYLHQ
Method: Preparation rat liver microsomes: Wistar rats under light halothane (15% in mineral oil) anesthesia were sacrificed by exsanguination during periods of high enzyme activity. Livers are immediately rinsed with cold 0.9% NaCl solution, weighed and minced with scissors. All procedures are performed at 4° C. unless specified otherwise. Livers are homogenized in a solution (1:3 w/v) containing 0.25 M sucrose, 62 mM. potassium phosphate buffer (pH 7.0), 0.15 M KCl, 1.5 mM N-acetylcysteine, 5 mM MgCl2, and 0.1 mM EDTA using 4 strokes of a Potter-Elvehjem tissue homogenizer. The homogenate is centrifuged at 10,400×g for 20 min to eliminate mitochondria and cellular debris. The supernatant is filtered through a 3-layer cheesecloth and centrifuged at 105,000×g for 60 min. The microsomal pellet is gently resuspended in the same homogenization solution with a small glass/teflon homogenizer and stored at −70° C. The absence of mitochondrial contamination is enzymatically assessed. The protein concentration is measured using bovine serum albumin as the standard.
Incubation of rat liver microsomes with delta-5-desaturase modulators: Reactions are started by adding 2 mg of microsomal protein to pre-incubated tubes containing 0.20 μCi of the substrate fatty acid (DLL) at a final concentration of 33.3 μM in 1.5 ml of homogenization solution, containing NaF (42 mM), niacinamide (0.33 mM), ATP (1.57 mM), NADH (1.0 mM), coenzyme A (0.09 mM) and a range of concentrations of the enzyme modulators. N-propyl gallate was added to the incubation medium to a final concentration of 0.02-0.32 mM. The tubes are vortexed vigorously and after 15 min incubation in a shaking water bath (37° C.), the reactions are stopped and fatty acids are analyzed as described in Example 6. Alternatively, fatty acid methyl esters are analyzed by capillary column gas chromatography (GC).

[6] = tested on: spheroplasts of Saccharomyces cerevisiae; assay: Cell density (O.D.600) and substrate radioactivity recovered in spheroplasts incubated with inhibitor
Text: Total lipids were extracted and analyzed as described in Example 6.

[7] = tested on: whole cells of Saccharomyces cerevisiae; assay: Cell density (O.D.600) and substrate radioactivity recovered in whole yeast incubated with inhibitor; type: cell-based
Method: as §2

fatty acid desaturases = settings: Kawashima et al., 1996; cited from earlier work
[8] = n-propyl gallate 0.25 mM, 20:3n-6 to 20:4n-6

For `CC/C=C\C/C=C\C/C=C\C/C=C\C/C=C\C/C=C\CCC(=O)O` [DHA, docosahexaenoic acid], the “Percent Activity Compared to Controls” value [1] was 19.82 ± 1.41%.
With `CCCOC(=O)c1cc(O)c(O)c(O)c1` [n-propyl gallate, 3,4,5-Trihydoxybenzoic acid propyl ester] the “% inhibition” value (human delta-5-desaturase [2]; [8]) was 14.6%, the “% inhibition” value (human delta-5-desaturase [2]; n-propyl gallate 0.50 mM) was 17.6% and the “% inhibition” value (human delta-5-desaturase [2]; n-propyl gallate 1.00 mM) was 24.0%. For the same compound, the “% inhibition” value (human delta-5-desaturase [2]; n-propyl gallate 2.00 mM) was 41.0%, the “% inhibition” value (human delta-5-desaturase [2]; n-propyl gallate 4.00 mM) was 100.0% and the “% inhibition” value (human delta-5-desaturase [2]; n-propyl gallate 8.00 mM) was 100.0%. The “% inhibition” value (rat delta-5-desaturase [3]; [8]) was 4.3%, the “% inhibition” value (rat delta-5-desaturase [3]; n-propyl gallate 1.00 mM) was 7.0% and the “% inhibition” value (rat delta-5-desaturase [3]; n-propyl gallate 2.00 mM) was 20.5%. For the same compound, the “% inhibition” value (rat delta-5-desaturase [3]; n-propyl gallate 4.00 mM) was 50.4%, the “% inhibition” value (rat delta-5-desaturase [3]; n-propyl gallate 8.00 mM) was 81.9% and the “% inhibition” value (human delta-5-desaturase [4]; n-propyl gallate 1.7 mM, gene induced after addition of inhibitor) was 25.0%. The “% inhibition” value (human delta-5-desaturase [4]; n-propyl gallate 3.5 mM) was 63.3%, the “% inhibition” value (human delta-5-desaturase [4]; n-propyl gallate 7.0 mM) was 100.0% and the “% inhibition” value (rat delta-5-desaturase [5]; n-propyl gallate 7.0 mM, gene induced after addition of inhibitor) was 38.9%. The “% inhibition” value (rat delta-5-desaturase [5]; n-propyl gallate 14.0 mM) was 68.5%, the “concentration of the inhibitor at which a plateau of inhibition was reached” value (delta-5-desaturase) was 0.08 to 0.32 mM and the “% of inhibition” value (delta-5-desaturase; n-propyl gallate 0.02 mM, activity without inhibitor 394 pmol/mg microsomal protein/min) was 62.9%. The “% of inhibition” value (delta-5-desaturase; n-propyl gallate 0.04 mM) was 74.9%, the “% of inhibition” value (delta-5-desaturase; n-propyl gallate 0.08 mM) was 86.4% and the “% of inhibition” value (delta-5-desaturase; n-propyl gallate 0.16 mM) was 88.7%. For the same compound, the “% of inhibition” value (delta-5-desaturase; n-propyl gallate 0.32 mM) was 100.0%, the O.D.600 ([6]; n-propyl gallate 0.25 mM, pTh5009.1, without inhibitor 2.6) was 2.4 and the O.D.600 ([6]; n-propyl gallate 0.25 mM, pYr5014.1, without inhibitor 3.2) was 2.8. It also gave an O.D.600 ([6]; n-propyl gallate 0.50 mM, pTh5009.1) of 2.5, an O.D.600 ([6]; n-propyl gallate 1.00 mM, pTh5009.1) of 2.5 and an O.D.600 ([6]; n-propyl gallate 1.00 mM, pYr5014.1) of 2.9. It also gave an O.D.600 ([6]; n-propyl gallate 2.00 mM, pTh5009.1) of 2.2, an O.D.600 ([6]; n-propyl gallate 2.00 mM, pYr5014.1) of 2.7 and an O.D.600 ([6]; n-propyl gallate 4.00 mM, pTh5009.1) of 2.4. For the same compound, the O.D.600 ([6]; n-propyl gallate 4.00 mM, pYr5014.1) was 2.9, the O.D.600 ([6]; n-propyl gallate 8.00 mM, pTh5009.1) was 1.2 and the O.D.600 ([6]; n-propyl gallate 8.00 mM, pYr5014.1) was 2.8. For the same compound, the “cytotoxicity (consistent O.D.600 readings)” value ([6]; n-propyl gallate between 0.7-4.0 mM) was “not cytotoxic”, the O.D.600 ([7]; n-propyl gallate 1.7 mM, pTh5009.1, without inhibitor 10.9) was 9.0 and the O.D.600 ([7]; n-propyl gallate 3.5 mM, pTh5009.1) was 9.9. It also gave an O.D.600 ([7]; n-propyl gallate 7.0 mM, pTh5009.1) of 10.5, an O.D.600 ([7]; n-propyl gallate 7.0 mM, pYr5014.1, without inhibitor 6.7) of 6.5 and an O.D.600 ([7]; n-propyl gallate 14.0 mM, pYr5014.1) of 5.4. The “type of inhibition of fatty acid desaturases” value (fatty acid desaturases) was “noncompetitive inhibitor”.
